Reference: ChEMBL document CHEMBL1141412, “Search for cell motility and angiogenesis inhibitors with potential anticancer activity: beauvericin and other constituents of two endophytic strains of Fusarium oxysporum” (J Nat Prod, 2007)
The source made the active and inactive calls. The rule behind the calls is not given here.

Tests used:
MCF7 [1] = assay: Cytotoxicity against human MCF7 cells after 72 hrs by MTT assay; assay type: cell-based; settings: MCF7, 72 h
MIA PaCa-2 [2] = assay: Cytotoxicity against human MIAPaCa2 cells after 72 hrs by MTT assay; assay type: cell-based; settings: MIA PaCa-2, 72 h
SF-268 [3] = assay: Cytotoxicity against human SF268 cells after 72 hrs by MTT assay; assay type: functional, cell-based; settings: SF-268, 72 h
NCI-H460 [4] = assay: Cytotoxicity against human NCI-H460 cells after 72 hrs by MTT assay; assay type: cell-based; settings: NCI-H460, 72 h
SF-268 [5] = assay: Cytotoxicity against human SF268 cells at 4 ug/mL after 72 hrs by MTT assay; assay type: functional, cell-based
MIA PaCa-2 [6] = assay: Cytotoxicity against human MIAPaCa2 cells at 4 ug/mL after 72 hrs by MTT assay; assay type: cell-based; settings: mia paca-2, 72 h
NCI-H460 [7] = assay: Cytotoxicity against human NCI-H460 cells at 2 ug/mL after 72 hrs by MTT assay; assay type: cell-based; settings: nci-h460, 72 h
SF-268 [8] = assay: Cytotoxicity against human SF268 cells at 2 ug/mL after 72 hrs by MTT assay; assay type: functional, cell-based
MCF7 [9] = assay: Cytotoxicity against human MCF7 cells at 4 ug/mL after 72 hrs by MTT assay; assay type: cell-based; settings: mcf7, 72 h
NCI-H460 [10] = assay: Cytotoxicity against human NCI-H460 cells at 4 ug/mL after 72 hrs by MTT assay; assay type: cell-based; settings: nci-h460, 72 h
MCF7 [11] = assay: Cytotoxicity against human MCF7 cells at 2 ug/mL after 72 hrs by MTT assay; assay type: cell-based; settings: mcf7, 72 h
MIA PaCa-2 [12] = assay: Cytotoxicity against human MIAPaCa2 cells at 2 ug/mL after 72 hrs by MTT assay; assay type: cell-based; settings: mia paca-2, 72 h
[13] = Antiangiogenic activity in HUVEC-2 cells assessed as inhibition of endothelial cell network formation after 16 hrs; assay type: functional, cell-based; settings: Homo sapiens
MDA-MB-231 = assay: Inhibition of cell proliferation in MDA-MB-231 cells after 40 hrs by MTT assay; assay type: functional, cell-based; settings: Homo sapiens, MDA-MB-231, 40 h
HUVEC = assay: Antiangiogenic activity in HUVEC-2 cells assessed as inhibition of endothelial cell network formation after 16 hrs at 3 uM; assay type: functional, cell-based; settings: Homo sapiens
[14] = Inhibition of cell proliferation in PC3M cells after 20 hrs by MTT assay; assay type: functional, cell-based; settings: Homo sapiens, PC-3M

`COC1=CC(=O)c2c(c(O)c3oc4cc(OC)cc(C)c4c(=O)c3c2O)C1=O` [BIKAVERIN] gave an IC50 (MCF7 [1]) of 0.42 µM, an IC50 (MIA PaCa-2 [2]) of 0.26 µM and an IC50 (SF-268 [3]) of 0.38 µM. The IC50 (NCI-H460 [4]) was 0.43 µM.
For `COc1cccc2c1C(=O)c1c(O)c3c(c(O)c1C2=O)C[C@@](O)(C(=O)CO)C[C@@H]3O[C@H]1C[C@H](N)[C@H](O)[C@H](C)O1` [DOXORUBICIN], the IC50 (MIA PaCa-2 [2]) was 0.05 µM, the IC50 (SF-268 [3]) was 0.04 µM and the IC50 (NCI-H460 [4]) was 0.01 µM.
In the case of `COC1=CC(=O)c2c(cc3oc4cc(OC)cc(C)c4c(=O)c3c2O)C1=O`, the Activity (SF-268 [5]) is reported as “inactive”, the Activity (MIA PaCa-2 [6]) is reported as “Not Active” and the Activity (NCI-H460 [7]) is reported as “Not Active”. For the same compound, the Activity (SF-268 [8]) was “inactive”, the Activity (MCF7 [9]) was “Not Active” and the Activity (NCI-H460 [10]) was “Not Active”. For the same compound, the Activity (MCF7 [11]) was “Not Active” and the Activity (MIA PaCa-2 [12]) was “Not Active”.
With `CC(C)[C@@H]1OC(=O)[C@@H](Cc2ccccc2)N(C)C(=O)[C@H](C(C)C)OC(=O)[C@@H](Cc2ccccc2)N(C)C(=O)[C@H](C(C)C)OC(=O)[C@@H](Cc2ccccc2)N(C)C1=O` [BEAUVERICIN] the IC50 (MCF7 [1]) was 1.81 µM, the IC25 [13] was 5 µM and the IC50 [13] was 7.5 µM. For the same compound, the IC25 (MDA-MB-231) was 6.4 µM, the IC50 (MDA-MB-231) was 7.5 µM and the Activity (HUVEC) was “Active”. For the same compound, the IC50 (MIA PaCa-2 [2]) was 1.66 µM, the IC50 (SF-268 [3]) was 2.29 µM and the IC25 [14] was 2.3 µM. The IC50 [14] was 3.8 µM and the IC50 (NCI-H460 [4]) was 1.41 µM.
